Assay: CNS Vital Signs (CNSVS) computerized cognition battery
Assay type: in vivo, human
Conditions: fasting
Description: Cognitive flexibility, attention, executive function, memory, reasoning, motor control, psychomotor speed, reaction time, and information processing speed were assessed predose and at 2 and 6 h following TAK-063 treatment using the CNSVS computerized cognition battery. The CNSVS cognition battery is a well-validated, sensitive measure and included the following tests: verbal and visual memory (VBM and VIM) tests, finger-tapping test, symbol digit coding test, Stroop test, shifting attention test, the nonverbal reasoning test, and the 4-part continuous performance test (Gualtieri and Johnson [2006]). Standardized domain scores for cognitive flexibility, composite memory, executive functioning, processing speed, psychomotor speed, reaction time, reasoning, sustained attention, verbal memory, visual memory, and working memory were reported. In all domains, a decrease in the standardized domain score is indicative of impairment.
All statistical analyses were generated using SAS Version 9.2 (SAS, Cary, NC, USA). The PK parameters were derived using non-compartmental methods with WinNonlin Enterprise Version 6.3 (Pharsight Corp., Mountain View, CA, USA). Frequency or descriptive statistics were used for summary of data. Where indicated, percent coefficient of variation was included in the summary of continuous data. All statistical tests were 2-tailed at α = 0.05 level for significance unless otherwise stated. A power model was used to evaluate dose proportionality by race for fasted subjects; in the event of no observed race effect, dose proportionality was assessed for all subjects. To evaluate the food effect, a paired t test was performed on T max and natural log-transformed C max, and AUCs. An ANCOVA model with baseline scores and race as covariates was used to assess the effects of TAK-063 on CNSVS domain scores.

COc1cn(-c2ccc(-n3cccn3)cc2F)nc(-c2ccnn2-c2ccccc2)c1=O [TAK-063]
Cognitive flexibility domain score, Difference (TAK-063 LS mean - placebo LS mean, change from baseline) (2 h postdose, 3 mg): 1.3
Composite memory domain score, Difference (TAK-063 LS mean - placebo LS mean, change from baseline) (2 h postdose, 3 mg): -7.9
Executive functioning domain score, Difference (TAK-063 LS mean - placebo LS mean, change from baseline) (2 h postdose, 3 mg): 0.4
Processing speed domain score, Difference (TAK-063 LS mean - placebo LS mean, change from baseline) (2 h postdose, 3 mg): 2.2
Psychomotor speed domain score, Difference (TAK-063 LS mean - placebo LS mean, change from baseline) (2 h postdose, 3 mg): -1.5
Reaction time domain score, Difference (TAK-063 LS mean - placebo LS mean, change from baseline) (2 h postdose, 3 mg): 4.1
Reasoning domain score, Difference (TAK-063 LS mean - placebo LS mean, change from baseline) (2 h postdose, 3 mg): 5.7
Sustained attention domain score, Difference (TAK-063 LS mean - placebo LS mean, change from baseline) (2 h postdose, 3 mg): 4.6
Verbal memory domain score, Difference (TAK-063 LS mean - placebo LS mean, change from baseline) (2 h postdose, 3 mg): 0.9
Visual memory domain score, Difference (TAK-063 LS mean - placebo LS mean, change from baseline) (2 h postdose, 3 mg): -10.3
Working memory domain score, Difference (TAK-063 LS mean - placebo LS mean, change from baseline) (2 h postdose, 3 mg): 5.3
Cognitive flexibility domain score, Difference (TAK-063 LS mean - placebo LS mean, change from baseline) (2 h postdose, 10 mg): -3.1
Composite memory domain score, Difference (TAK-063 LS mean - placebo LS mean, change from baseline) (2 h postdose, 10 mg): -5.2
Executive functioning domain score, Difference (TAK-063 LS mean - placebo LS mean, change from baseline) (2 h postdose, 10 mg): -2.7
Processing speed domain score, Difference (TAK-063 LS mean - placebo LS mean, change from baseline) (2 h postdose, 10 mg): 0.7
Psychomotor speed domain score, Difference (TAK-063 LS mean - placebo LS mean, change from baseline) (2 h postdose, 10 mg): -8.5
Reaction time domain score, Difference (TAK-063 LS mean - placebo LS mean, change from baseline) (2 h postdose, 10 mg): -2.3
Reasoning domain score, Difference (TAK-063 LS mean - placebo LS mean, change from baseline) (2 h postdose, 10 mg): 10.8
Sustained attention domain score, Difference (TAK-063 LS mean - placebo LS mean, change from baseline) (2 h postdose, 10 mg): 0.7
Verbal memory domain score, Difference (TAK-063 LS mean - placebo LS mean, change from baseline) (2 h postdose, 10 mg): -4.0
Visual memory domain score, Difference (TAK-063 LS mean - placebo LS mean, change from baseline) (2 h postdose, 10 mg): -3.3
Working memory domain score, Difference (TAK-063 LS mean - placebo LS mean, change from baseline) (2 h postdose, 10 mg): 1.1
Cognitive flexibility domain score, Difference (TAK-063 LS mean - placebo LS mean, change from baseline) (2 h postdose, 30 mg): 0.2
Composite memory domain score, Difference (TAK-063 LS mean - placebo LS mean, change from baseline) (2 h postdose, 30 mg): 2.8
Executive functioning domain score, Difference (TAK-063 LS mean - placebo LS mean, change from baseline) (2 h postdose, 30 mg): 0.5
Processing speed domain score, Difference (TAK-063 LS mean - placebo LS mean, change from baseline) (2 h postdose, 30 mg): 4.3
Psychomotor speed domain score, Difference (TAK-063 LS mean - placebo LS mean, change from baseline) (2 h postdose, 30 mg): -1.7
Reaction time domain score, Difference (TAK-063 LS mean - placebo LS mean, change from baseline) (2 h postdose, 30 mg): 3.1
Reasoning domain score, Difference (TAK-063 LS mean - placebo LS mean, change from baseline) (2 h postdose, 30 mg): 6.4
Sustained attention domain score, Difference (TAK-063 LS mean - placebo LS mean, change from baseline) (2 h postdose, 30 mg): 10.3
Verbal memory domain score, Difference (TAK-063 LS mean - placebo LS mean, change from baseline) (2 h postdose, 30 mg): 12.4
Visual memory domain score, Difference (TAK-063 LS mean - placebo LS mean, change from baseline) (2 h postdose, 30 mg): -5.2
Working memory domain score, Difference (TAK-063 LS mean - placebo LS mean, change from baseline) (2 h postdose, 30 mg): 6.5
Cognitive flexibility domain score, Difference (TAK-063 LS mean - placebo LS mean, change from baseline) (2 h postdose, 100 mg): -20.2
Composite memory domain score, Difference (TAK-063 LS mean - placebo LS mean, change from baseline) (2 h postdose, 100 mg): -24.1
Executive functioning domain score, Difference (TAK-063 LS mean - placebo LS mean, change from baseline) (2 h postdose, 100 mg): -17.8
Processing speed domain score, Difference (TAK-063 LS mean - placebo LS mean, change from baseline) (2 h postdose, 100 mg): -6.1
Psychomotor speed domain score, Difference (TAK-063 LS mean - placebo LS mean, change from baseline) (2 h postdose, 100 mg): -15.2
Reaction time domain score, Difference (TAK-063 LS mean - placebo LS mean, change from baseline) (2 h postdose, 100 mg): -15.6
Reasoning domain score, Difference (TAK-063 LS mean - placebo LS mean, change from baseline) (2 h postdose, 100 mg): 4.6
Sustained attention domain score, Difference (TAK-063 LS mean - placebo LS mean, change from baseline) (2 h postdose, 100 mg): -7.0
Verbal memory domain score, Difference (TAK-063 LS mean - placebo LS mean, change from baseline) (2 h postdose, 100 mg): -24.0
Visual memory domain score, Difference (TAK-063 LS mean - placebo LS mean, change from baseline) (2 h postdose, 100 mg): -15.4
Working memory domain score, Difference (TAK-063 LS mean - placebo LS mean, change from baseline) (2 h postdose, 100 mg): -3.8
Cognitive flexibility domain score, Difference (TAK-063 LS mean - placebo LS mean, change from baseline) (2 h postdose, 300 mg): -30.9
Composite memory domain score, Difference (TAK-063 LS mean - placebo LS mean, change from baseline) (2 h postdose, 300 mg): -26.9
Executive functioning domain score, Difference (TAK-063 LS mean - placebo LS mean, change from baseline) (2 h postdose, 300 mg): -29.0
Processing speed domain score, Difference (TAK-063 LS mean - placebo LS mean, change from baseline) (2 h postdose, 300 mg): -17.6
Psychomotor speed domain score, Difference (TAK-063 LS mean - placebo LS mean, change from baseline) (2 h postdose, 300 mg): -18.0
Reaction time domain score, Difference (TAK-063 LS mean - placebo LS mean, change from baseline) (2 h postdose, 300 mg): -10.3
Reasoning domain score, Difference (TAK-063 LS mean - placebo LS mean, change from baseline) (2 h postdose, 300 mg): 0.5
Sustained attention domain score, Difference (TAK-063 LS mean - placebo LS mean, change from baseline) (2 h postdose, 300 mg): -9.0
Verbal memory domain score, Difference (TAK-063 LS mean - placebo LS mean, change from baseline) (2 h postdose, 300 mg): -26.7
Visual memory domain score, Difference (TAK-063 LS mean - placebo LS mean, change from baseline) (2 h postdose, 300 mg): -17.2
Working memory domain score, Difference (TAK-063 LS mean - placebo LS mean, change from baseline) (2 h postdose, 300 mg): -3.1
Cognitive flexibility domain score, Difference (TAK-063 LS mean - placebo LS mean, change from baseline) (2 h postdose, 1000 mg): -19.6
Composite memory domain score, Difference (TAK-063 LS mean - placebo LS mean, change from baseline) (2 h postdose, 1000 mg): -16.6
Executive functioning domain score, Difference (TAK-063 LS mean - placebo LS mean, change from baseline) (2 h postdose, 1000 mg): -16.6
Processing speed domain score, Difference (TAK-063 LS mean - placebo LS mean, change from baseline) (2 h postdose, 1000 mg): -17.9
Psychomotor speed domain score, Difference (TAK-063 LS mean - placebo LS mean, change from baseline) (2 h postdose, 1000 mg): -18.7
Reaction time domain score, Difference (TAK-063 LS mean - placebo LS mean, change from baseline) (2 h postdose, 1000 mg): -7.1
Reasoning domain score, Difference (TAK-063 LS mean - placebo LS mean, change from baseline) (2 h postdose, 1000 mg): -0.5
Sustained attention domain score, Difference (TAK-063 LS mean - placebo LS mean, change from baseline) (2 h postdose, 1000 mg): -5.0
Verbal memory domain score, Difference (TAK-063 LS mean - placebo LS mean, change from baseline) (2 h postdose, 1000 mg): -10.0
Visual memory domain score, Difference (TAK-063 LS mean - placebo LS mean, change from baseline) (2 h postdose, 1000 mg): -14.5
Working memory domain score, Difference (TAK-063 LS mean - placebo LS mean, change from baseline) (2 h postdose, 1000 mg): -2.5
Cognitive flexibility domain score, Difference (TAK-063 LS mean - placebo LS mean, change from baseline) (6 h postdose, 3 mg): 2.9

From PMC5063900, “A phase 1 study of the safety, tolerability, pharmacokinetics, and pharmacodynamics of TAK-063, a selective PDE10A inhibitor” (Psychopharmacology, 2016)
